From US4477664A, “Novel 1-(4-piperidiniobenzyl)-2,3-dioxopiperazine derivatives or acid addition salts thereof” (Toyama Chemical Co., Ltd., priority 1979, dated 1984)
≈ marks a conversion by molar mass, not a printed value. Where two headings read alike, the source gives them in different places.

Tests used:
HeLa S3 cells = test: MIC value against HeLa S3 cells (microplate method); assay type: cell-based; conditions: Homo sapiens, 96 h, 2×10^4 cells/ml, 4 days, Giemsa staining
From the text: (§1) a. MIC value against HeLa S3 cells and Ehrlich cells (microplate method) Number of cells: 2×10^4 cells/ml Culture medium: Eagle's MEM+20% calf embryonic serum Culture time: 4 days Judgement: Giemsa staining

Ehrlich cells = test: MIC value against Ehrlich cells (microplate method); assay type: cell-based; conditions: 96 h, 2×10^4 cells/ml, 4 days, Giemsa staining
From the text: as §1

[1] = test system: Ehrlich ascites carcinoma cells; test: Effect on Ehrlich carcinoma (ii): subcutaneous inoculation at inguinal region, mean tumor weight; assay type: in vivo, ICR-strain mice; conditions: 250 mg/kg, orally, once a day for 5 days, judgement day 15
Method: (ii) Ehrlich ascites carcinoma cells (4×10^6 cells/head) were inoculated subcutaneously at the inguinal region into ICR-strain mice (female, 6 to 7 weeks old, each group consisting of 5 or 4 mice), and after 24 hours, the intraperitaneal or oral administration of a test drug was started and effected once a day for 5 days. The effect thereof was judged from the mean weight of tumor on the 13th or 15th day, respectively.
The test drug was used in the form of a solution or suspension in a saline solution or a 0.3% carboxymethyl cellulose-containing saline solution. [formula]

[2] = test system: Ehrlich ascites carcinoma cells; test: Effect on Ehrlich carcinoma (iii): subcutaneous inoculation at right armpit, mean tumor weight; assay type: in vivo, ICR-strain mice; conditions: once a day for 7 days, 14th day
Method: (iii) Ehrlich ascites carcinoma cells (4×10^6 cells/head) were inoculated subcutaneously at the right armpit region into ICR-strain mice (female, 7 weeks old, each group consisting of 6 or 7 mice), and after 24 hours, the oral administration or subcutaneous administration at the dorsal region of a test drug was started, and effected once a day for 7 days. The effect thereof was judged from the mean weight of the tumor on the 14th day. The test drug was used in the form of a solution or suspension in a saline solution or a 0.3% carboxymethyl cellulose-containing saline solution.
T/C was calculated in the same manner as in above (ii).

[3] = test system: Sarcoma 180 ascites cells; test: Effect on Sarcoma 180 carcinoma: intraperitoneal inoculation, mean survival days; assay type: in vivo, ICR-strain mice; conditions: once a day for 7 days
Method: Sarcoma 180 ascites cells (1×10^6 cells/head) were inocualted intraperitoneally into ICR-strain mice (female, 6 weeks old, each group consisting of 4 or 5 mice), and after 24 hours, the intraperitoneal administration of a test drug was started, and effected once a day for 7 days. The effect thereof was judged from the mean survival days. The test drug was used in the form of a solution or suspension in a saline solution or a 0.3% carboxymethyl cellulose-containing saline solution. [formula]

L-1210 ascites cells [4] = test: Effect on L-1210 leukemia (i): intraperitoneal inoculation, mean survival days; assay type: in vivo, BDF1-strain mice
Method: (§2) (i) L-1210 ascites cells (1×10^5 cells/head) were inoculated intraperitoneally into BDF1 -strain mice (female, 6 weeks old, each group consisting of 4 mice), and after 24 hours, the intraperitoneal administration of a test drug was started and effected once a day. The effect thereof was judged from the mean survival days. The test drug was used in the form of a solution or suspension in a saline solution or a 0.3% carboxymethyl cellulose-containing saline solution.
T/C was calculated in the same manner as in above b (i).

P-388 ascites cells [5] = test: Effect on P-388 leukemia (ii): subcutaneous inoculation, mean tumor weight; assay type: in vivo, BDF1-strain mice; conditions: oral, once a day for 7 days, 11th day
Method: (ii) P-388 ascites cells (1×10^6 cells/head) were inoculated subcutaneously at the right armpit into BDF1 -strain mice (male, 7 weeks old, each group consisting of 8 mice), and after 24 hours, the oral administration of a test drug was started, and effected once a day for 7 days. The effect thereof was judged from the mean weight of the tumor at the 11th day. The test drug was used in the form of a suspension or solution in a 0.3% carboxymethyl cellulose-containing saline solution or a dimethylsulfoxide-propylene glycolphosphate buffer (1:2:1) mixture. T/C was calculated in the same manner as in above b(ii).

B-16 melanoma cells = test: Effect on B-16 melanoma: subcutaneous inoculation, mean tumor weight; assay type: in vivo, BDF1-strain mice
Method: B-16 melanoma cells (1×10^6 cells/head) were inoculated subcutaneously at the right armpit region into BDF1 -strain mice (male, 7 weeks old, each group consisting of 8 mice), and after 24 hours, the oral administration or subcutaneous administration at the […] […] The test drug was used in the form of a suspension or solution in a 0.3% carboxymethyl cellulose-containing saline solution or dimethylsulfoxide-propylene glycol (1:1) mixture. T/C was calculated in the same manner as in above b(ii).

Acute toxicity = conditions: mouse, in vivo, ip
From the text: The test drugs were used in the form of a solution or suspension in a saline solution or a 0.3% carboxymethyl cellulose-containing saline solution.

[6] = test system: Ehrlich ascites carcinoma cells; test: Effect on Ehrlich carcinoma (i): intraperitoneal inoculation, mean survival days; assay type: in vivo, ICR-strain mice; conditions: Mus musculus, ip, read-out: T/C (mean survival days)
Method: (i) Ehrlich ascites carcinoma cells (1×10^6 cells/head) were inoculated intraperitoneally into ICR-strain mice (female, 6 to 7 weeks old, each group consisting of 5 or 4 mice), and after 24 hours, the […] The effect thereof was judged from the mean survival days.
The test drugs were used in the form of a solution or suspension in a saline solution or a 0.3% carboxymethyl cellulose-containing saline solution. [formula]

L-1210 ascites cells [7] = test: Effect on L-1210 leukemia (ii): subcutaneous inoculation, mean survival days and tumor weight; assay type: in vivo, BDF1-strain mice; conditions: oral; for T/C Tumor Weight: 9th day
Method: (ii) L-1210 ascites cells (1×10^6 cells/head) were inoculated subcutaneously into BDF1 -strain mice (male, 6 weeks old, each group consisting of 4 mice), and after 24 hours, the oral administration of a test drug was started, and effected once a day for […]. The effect thereof was judged from the mean survival days and the weight of the tumor on the 9th day.
The test drug was used in the form of a suspension in a 0.3% carboxymethyl cellulose-containing saline solution. T/C was calculated in the same manner as in above b(i) and b(ii).

[8] = test system: Lewis lung carcinoma cells; test: Effect on Lewis lung carcinoma: subcutaneous inoculation, average tumor weight; assay type: in vivo, BDF1-strain mice; conditions: oral, once a day for 7 days, 21st day
Method: Lewis lung carcinoma cells (1×10^6 cells/head) were inoculated subcutaneously at the right armpit region into BDF1 -strain mice (male, 6 weeks old, each group consisting of 5 mice) and after 24 hours, the oral administration of a test drug was started and effected once a day for 7 days. The effect thereof was judged from the average weight of tumor on the 21st day. The test drug was used in the form of a suspension in a 0.3% carboxymethyl cellulose-containing saline solution. T/C was calculated in the same manner as in above b(ii).

P-388 ascites cells [9] = test: Effect on P-388 leukemia (i): intraperitoneal inoculation, mean survival days; assay type: in vivo, BDF1-strain mice; conditions: 100 mg/kg, once a day for 7 days
Method: as §2, with “P-388” for “L-1210”, “(1×10^6” for “(1×10^5”, “day for 7 days.” for “day.”, “solution. T/C was calculated in the same manner as in above b(i).” for “solution.”

[10] = 100 mg/kg, orally, 7 administrations, 18th day
[11] = 100* mg/kg, orally, 7 administrations, 19th day, in dimethylsulfoxide-propylene glycol (1:1)

SMILES: Nc1ccc(Nc2ccc(CN3CCN(Cc4ccccc4)C(=O)C3=O)cc2)nc1 [Compound 4]
- MIC (HeLa S3 cells): < 0.05 µg/mL
- MIC (Ehrlich cells): < 0.05 µg/mL
- T/C (mean tumor weight) [1]: 56.9%
- T/C (mean tumor weight) ([2]; 50 mg/kg, orally): 82%
- T/C (mean tumor weight) ([2]; 50 mg/kg, subcutaneously): 15%
- T/C (mean tumor weight) ([2]; 100 mg/kg, orally): 65%
- T/C (mean survival days) ([3]; 10 mg/kg): > 221%
- Survival Ratio in Days Shown in Parenthesis ([3]; 10 mg/kg, 32 days): 4/5
- T/C (mean survival days) ([3]; 20 mg/kg): > 221%
- Survival Ratio in Days Shown in Parenthesis ([3]; 20 mg/kg, 32 days): 4/5
- T/C (mean survival days) (L-1210 ascites cells [4]; 50 mg/kg, 9 administrations): 164.3%
- T/C (mean survival days) (L-1210 ascites cells [4]; 100 mg/kg, 3 administrations): 161.9%
- T/C (mean tumor weight) (P-388 ascites cells [5]; 50 mg/kg): 79%
- T/C (mean tumor weight) (B-16 melanoma cells; 25 mg/kg, subcutaneously, 7 administrations, 19th day): 38%
- T/C (mean tumor weight) (B-16 melanoma cells; 50 mg/kg, orally, 9 administrations, 21st day): 60%
- T/C (mean tumor weight) (B-16 melanoma cells; [10]): 58%
- T/C (mean tumor weight) (B-16 melanoma cells; 50* mg/kg, orally, 7 administrations, 19th day, in dimethylsulfoxide-propylene glycol (1:1)): 71%
- LD50 at 168 h (Acute toxicity): > 300 mg/kg

SMILES: O=C1C(=O)N(Cc2ccc(Nc3ncccn3)cc2)CCN1Cc1ccccc1 [Compound 13]
- MIC (HeLa S3 cells): 0.1 µg/mL (≈ 0.258 µM)
- MIC (Ehrlich cells): 0.1 µg/mL (≈ 0.258 µM)
- response vs control in vivo at 100 mg/kg ([6]; 168 h, once a day for 7 days): > 177%
- T/C (mean tumor weight) [1]: 32.4%
- T/C (mean tumor weight) ([2]; 50 mg/kg, subcutaneously): 54%
- T/C (mean tumor weight) ([2]; 100 mg/kg, orally): 48%
- T/C (mean tumor weight) ([2]; 200 mg/kg, orally): 26%
- T/C (mean survival days) ([3]; 50 mg/kg): > 204%
- Survival Ratio in Days Shown in Parenthesis ([3]; 50 mg/kg, 32 days): 4/5
- T/C (mean survival days) (L-1210 ascites cells [4]; 50 mg/kg, 9 administrations): 240.5%
- T/C (mean survival days) (L-1210 ascites cells [4]; 100 mg/kg, 6 administrations): 150%
- T/C (mean survival days) (L-1210 ascites cells [4]; 200 mg/kg, 3 administrations): 229%
- T/C Survival Days (L-1210 ascites cells [7]; 50 mg/kg): 120.0%
- T/C Tumor Weight (L-1210 ascites cells [7]; 50 mg/kg): 156.6%
- T/C Survival Days (L-1210 ascites cells [7]; 100 mg/kg): 194.4%
- T/C Tumor Weight (L-1210 ascites cells [7]; 100 mg/kg): 2.6%
- T/C Survival Days (L-1210 ascites cells [7]; 250 mg/kg): 127.8%
- T/C Tumor Weight (L-1210 ascites cells [7]; 250 mg/kg): 0%
- T/C (mean tumor weight) (P-388 ascites cells [5]; 200 mg/kg): 49%
- T/C (mean tumor weight) (P-388 ascites cells [5]; 60* mg/kg, solution in dimethylsulfoxide-propylene glycol-phosphate buffer (1:2:1)): 25%
- T/C (average tumor weight) ([8]; 100 mg/kg): 73.2%
- T/C (average tumor weight) ([8]; 200 mg/kg): 67.1%
- T/C (mean tumor weight) (B-16 melanoma cells; [10]): 62%
- T/C (mean tumor weight) (B-16 melanoma cells; 200 mg/kg, orally, 9 administrations, 21st day): 23%
- T/C (mean tumor weight) (B-16 melanoma cells; 50* mg/kg, subcutaneously, 7 administrations, 19th day, in dimethylsulfoxide-propylene glycol (1:1)): 88%
- T/C (mean tumor weight) (B-16 melanoma cells; [11]): 40%
- LD50 at 168 h (Acute toxicity): > 1000 mg/kg

SMILES: CCCCCCN1CCN(Cc2ccc(Nc3ncccn3)cc2)C(=O)C1=O [Compound 7]
- MIC (HeLa S3 cells): 0.39 to 0.78 µg/mL (≈ 1.02 to 2.04 µM)
- MIC (Ehrlich cells): 0.39 to 0.78 µg/mL (≈ 1.02 to 2.04 µM)
- response vs control in vivo at 50 mg/kg ([6]; 168 h, 50 mg/kg, once a day for 7 days): > 187%
- response vs control in vivo at 100 mg/kg ([6]; 168 h, once a day for 7 days): > 207%
- T/C (mean survival days) ([3]; 100 mg/kg): > 183.1%
- Survival Ratio in Days Shown in Parenthesis ([3]; 100 mg/kg, 35 days): 3/4
- T/C (mean survival days) (L-1210 ascites cells [4]; 50 mg/kg, 9 administrations): 181%
- T/C (mean survival days) (L-1210 ascites cells [4]; 100 mg/kg, 7 administrations): 168.7%
- T/C (mean survival days) (L-1210 ascites cells [4]; 200 mg/kg, 3 administrations): 159.5%
- T/C (mean survival days) (P-388 ascites cells [9]): 166.3%
- LD50 at 168 h (Acute toxicity): > 1000 mg/kg

SMILES: Nc1ccc(Nc2ccc(CN3CCN(Cc4ccccc4)C(=O)C3=O)cc2)nc1Cl [Compound 41]
- MIC (HeLa S3 cells): < 0.05 µg/mL
- MIC (Ehrlich cells): < 0.05 µg/mL
- response vs control in vivo at 50 mg/kg ([6]; 96 h, 50* mg/kg, once a day for 4 days): 195%
- T/C (mean tumor weight) ([2]; 50 mg/kg, orally): 78%
- T/C (mean tumor weight) ([2]; 50 mg/kg, subcutaneously): 54%
- T/C (mean survival days) ([3]; 10 mg/kg): > 193%
- Survival Ratio in Days Shown in Parenthesis ([3]; 10 mg/kg, 32 days): 1/5
- T/C (mean survival days) ([3]; 20 mg/kg): > 218%
- Survival Ratio in Days Shown in Parenthesis ([3]; 20 mg/kg, 32 days): 4/5
- T/C (mean survival days) (L-1210 ascites cells [4]; 20 mg/kg, 7 administrations): 236%
- T/C (mean tumor weight) (P-388 ascites cells [5]; 200 mg/kg): 67%
- T/C (average tumor weight) ([8]; 100 mg/kg): 65.9%
- T/C (average tumor weight) ([8]; 200 mg/kg): 43.4%
- T/C (mean tumor weight) (B-16 melanoma cells; 50 mg/kg, subcutaneously, 3 administrations, 19th day): 37%
- T/C (mean tumor weight) (B-16 melanoma cells; [10]): 88%
- T/C (mean tumor weight) (B-16 melanoma cells; [11]): 43%
- LD50 at 168 h (Acute toxicity): > 200 mg/kg
